Measurements published in patent publication US9956179B2, “Process and apparatuses for preparing nanoparticle compositions with amphiphilic copolymers and their use” (The Trustees of Princeton University, priority 2001, dated 2018).

Assay: Particle size distribution by Malvern Mastersizer S (volume basis)
Assay type: physicochemical
Conditions: first analysis after formation, diluted with water
Experimental: For the examples containing a substantial fraction of nanoparticles <100 nm in diameter, photon correlation spectroscopy was performed on a Brookhaven with an ALV5000 multiple tau correlator to determine the average particle size using a second order cumulant fit. In accordance with standard practice, the viscosity and index of refraction of the solvent at a volume percentage the same as after mixing were input as properties of the fluid. A Malvern Mastersizer S version 2.18 was also used to determine the particle size distribution based on volume, or similar to a weight. Likewise, the average particle size was based on volume or mass, D[4,3]. The data analysis used a polydisperse model and the Standard-Wet (3OHD) presentation that assumes the particle is suspended in water. Some samples were diluted with water for analysis. For all processing conditions, the water used was purified by RO and filtered and the temperature is given within 2° C. The polymer blocks were nominal molecular weight with the nomenclature (1000) describing a block nominally of 1000 g/mole. The blocks could have contained minor impurities (<10% by weight and typically <5% by weight) due to the method of synthesis.

For CC1=C(/C=C/C(C)=C/C=C/C(C)=C/C=C/C=C(C)/C=C/C=C(C)/C=C/C2=C(C)CCCC2(C)C)C(C)(C)CCC1 [β-carotene], the “Mean size D[4,3]” value was 120 μm and the “Yield of nanoparticles below 1060 nm” value was 9%.
